Entries after “also recorded” stand apart in the source; their conditions may differ. Ends that are not written are not given here.
Columns and labels:
[1] = test system: pathogenic microorganisms including bacteria, yeasts, filamentous fungi and protozoa; experiment: Antimicrobial activity on the spectrum of microorganisms of TABLE I; type: cell-based; settings: same experimental conditions
Description: Methods. […] Antimicrobial assays were performed as described in Mor and Nicolas, 1994, J. Biol. Chem. 269:1934-1939. The effect on leishmania was assessed after 1 hour peptide exposure by counting living cells following trypan blue […]. Promastigotes were cultured (1×10^5 cells/ml) at 26° C. […] Trop. Med. Parasitol. 78:423-425, and cultured (1×10^4 cells/ml) at 37° C. Reversibility of inhibition was assessed by incubating 0.5 ml suspension containing 1×10^6 cells/ml in culture media in presence of peptide concentration of 0.2 mg/ml. After various incubation periods, aliquots were centrifuged at 900 g, the pellet washed and reincubated for 24 hours in fresh culture medium.
To verify the reversibility of inhibition, treated suspensions were thoroughly washed at various periods and reincubated in fresh medium.

[2] = Dissipation of Diffusion Potential Assay (membrane permeation); settings: SUV pretreated with diS-C2-5 and valinomycin
Description: Methods: Small unilamellar vesicles (SUV) were prepared by sonication of PC/PS (1:1 w/w) and cholesterol (10% by weight) as described in Shai et al., 1991, J. Biol. Chem. 266:22346-54. Membrane permeation was assessed using the diffusion potential assay. Sims et al., 1974, Biochemistry 13:3315-3330; Shai et al., 1991, J. Biol. Chem. 266:22346-54. […] Maximal activity of the peptides was plotted versus peptide/lipid molar ratio.

Leishmania = settings: 300 mg/kg for 20-40 injections; cited from earlier work
Pseudonomas aeruginosa = settings: U.S. Pat. No. 5,221,664; cited from earlier work
Leishmania major [3] = experiment: Murine cutaneous leishmaniasis, SPYY i.v. in Balb/c mice; type: in vivo; settings: same doses as SPYY, 6 mice
Leishmania major [4] = experiment: Murine cutaneous leishmaniasis, drug administration to infected Balb/c mice (TABLE V); type: in vivo
Source text: To investigate the peptide's efficacy in affecting leishmania parasites in vivo, murine cutaneous-leishmaniasis models were used in which mice inoculated with Leishmania major promastigotes were allowed to develop a characteristic cutaneous lesion that attained a mean diameter of […] at day 27 of inoculation. Frommel et al., 1988 , Infection and Immunity 56:843. Treatment consisted of 3 peptide injections at intervals of 5 days and was compared with the effect induced by sodium stibogluconate, the current anti-leishmaniasis drug of choice. After injections, samples drawn periodically from the lesion area were analyzed for assessment of parasites evolution.
Methods: Female mice, 6 to 8 weeks old, were inoculated with Leishmania major promastigotes (1×10^6) at the proximal portion of the tail as described in Frommel et al., 1988, Infection and Immunity 56:843. […] Simultaneously, evolution of the cutaneous lesion was assessed by direct measurement of the necrotic zone of the lesion.
Methods. Cytokine concentrations in serum of treated and untreated Balb/c mice were determined by enzyme-immunoassay (Kit Genzyme®) using murine anti-IFN-γ or anti-TNF-α monoclonal antibodies and the corresponding rabbit polyclonal antibodies conjugated to peroxidase, following the manufacturer instructions.

PYY: human PYY, 36-residue peptide of the pancreatic peptide family
antimicrobial potency compared with SPYY [1]: inhibitory activity at comparable concentrations

PEEMNKYLTALRHYINLVTRQRY-NH2 [SPYY14-36]
antimicrobial potency compared with SPYY [1]: comparable molar potency
membrane permeation [2]: permeated phospholipid vesicles

NPY: human NPY, 36-residue peptide of the pancreatic peptide family
antimicrobial potency compared with SPYY [1]: inhibitory activity at comparable concentrations

meglumine antimoniate [Glucantime]
outcome of therapy (Leishmania): does not cure the disease but only results in a transient reduction of the symptoms

Magainin II: magainin peptide
MIC (Pseudonomas aeruginosa): 256 µM

EEEKRENEDEEKQDDEQSEM [acidic peptide, helical acidic synthetic peptide, control]
control peptide compared with physiological water control (Leishmania major [3]): No significant differences

O.O.O.O.O.O.O.O.O.O=C([O-])[C@@H]1[O][Sb]2([O-])([O][Sb]34([OH])[O][C@H]([C@H](O)CO)[C@H]([O]3)[C@H](C(=O)[O-])[O]4)[O][C@H]([C@H](O)CO)[C@@H]1[O]2.[Na+].[Na+].[Na+] [NaSG, sodium stibogluconate]
outcome of the cutaneous lesion / disease (Leishmania major [4]; Balb/c, up to twelve weeks post inoculation and later): reduced; also recorded: complete healing or skin cicatrization were not observed
reduction of number of parasites and lesion size (Leishmania major [4]; mouse, in vivo): partially effective
